The values that follow come from patent publication US20050209451A1, “Crystalline form of cefdinir” (priority 2002, published 2005).

A short description of series [1]: accelerated stability tests in comparison with crystal A. The format is physicochemical. From the text: Cefdinir in the new crystalline form was subjected to accelerated stability tests in comparison with crystal A claimed in U.S. Pat. No. 4,935,507.
Series [2] can be described thus: dissolution tests in 0.07 N HCl. The format is physicochemical. Particulars: after the first hour, compared with crystal A.

SMILES strings stand for the structures.

Turning to `C=CC1=C(C(=O)O)N2C(=O)[C@@H](NC(=O)/C(=N\O)c3csc(N)n3)[C@H]2SC1` [new crystal, cefdinir], the stability entry was “at least equal to that of the reference crystal A” in series [1] (compared with reference crystal A of U.S. Pat. No. 4,935,507) and “high stability” in series [1] (compared with reference crystal A of U.S. Pat. No. 4,935,507, listed as product obtained in this manner). The “solubility on prolonged dissolution treatment (final dissolved cefdinir value)” value in series [2] (listed as cefdinir in the new crystalline form) was “more soluble than crystal A”; in series [2] (listed as product obtained in this manner), “higher than that possible with crystal A”.
